According to US20190282600A1, “COMBINATION THERAPIES TARGETING TERT DEPENDENCY FOR CANCER THERAPY” (The Wistar Institute of Anatomy and Biology, priority 2018, published 2019):

Experiments:
[1] = mice; cited from earlier work
[2] = test system: detoxifying enzymes SOD2, GPX1 and UCP2; test: mRNA levels of antioxidant enzymes by qRT-PCR; type: cell-based, Human; details: NRAS mutant melanoma cells, 1 μM 6-thio-dG for 7 days
Description: FIGS. 3a to 3g provides graphs showing that telomere dysfunction enhances oxidative stress leading to upregulation of an antioxidant program. […] Mitochondrial superoxide production was measured by MitoSox Red fluorescence (FIGS. 3c, and 3d) and expressed as fluorescence relative to vector or DMSO controls. […] FIG. 3f provides a bar graph showing that SOD2 was silenced using shRNA. Transduced M93-047 cells were treated with DMSO or 1 μM of 6-thio-dG and cell death was assessed by Annexin V/PI straining. As presented in FIG. 3g, M93-047 cells were transduced with a SOD2 lentiviral construct or empty vector control (pLX304). Transduced cells were treated with increasing doses (1, 2.5 and 5 μM) of 6-thio-dG for 7 days and cell death was assessed. Data represent average from three independent experiments ±SEM. *p<0.05; **p<0.01; ***p<0.005 in unpaired Student's t-test.
Total RNA (1 μg) was reverse transcribed using Maxima First-Strand cDNA synthesis kit (Thermo Scientific, Waltham, Mass.). Fast SYBR Green Master Mix (Applied Biosystems, Waltham, Mass.) was used with 100 ng cDNA template and 250 nM primers for the evaluation of target gene expression. Amplification was performed in triplicate using ABI PRISM 7500 Fast RT PCR System (Applied Biosystems, Waltham, Mass.) and expression of mRNA was assessed using the […].

KRAS mutant HCT116 cells = test: Cell death by Annexin V/PI flow cytometry; type: cell-based; details: 1 μM 6-thio-dG, 5 μM Gam
Description: (§1) FIGS. 5a to 5e provide bar graphs showing that combination treatment with 6-Thio-dG and Gamitrinib (Gam) triggers death selectively in NRAS mutant tumor cells. NRAS-WT/BRAF-WT melanoma cells (FIG. 5a), NRAS-WT/BRAF-mut melanoma cells (FIG. 5b), NRAS mutant neuroblastoma cells (FIG. 5c), NRAS-WT/KRAS-mutant colon cancer cells (FIG. 5d), and NRAS-WT/KRAS-mutant lung cancer cells were treated with 1 μM 6-thio-dG for 5 days (FIG. 5e). At day 5, culture medium was replaced and cells treated with 1 μM 6-thio-dG plus 5 μM Gam for two more days. Cells were stained with Annexin V and PI and percent cell death was determined by FACS. Data represent average of three independent experiments +/−SEM; p values were calculated using un-paired Student's t-test; *p<0.05; **p<0.001.
(§2) Cells were seeded in 96-well plates and treated with drugs. After 6 days, cell viability was assessed following 6h incubation with […] Alamar Blue (ThermoFisherScientific, Philadelphia, Pa.) by measuring fluorescence using an EnVision Xcite Multilabel plate reader (Perkin Elmer, Waltham, Mass.). Cell death was determined by flow cytometry using PSVue-643 (Molecular Targeting Technologies) or Annexin V (640919, Biolegend, San Diego, Calif.) and Propidium Iodide (Sigma) staining. Samples were analyzed using a BD LSRII flow cytometer (BD Biosciences, San Jose, Calif.).

KRAS mutant A549 cells = test: Cell death by Annexin V/PI flow cytometry; type: cell-based; details: 1 μM 6-thio-dG, 5 μM Gam
Description: as §1, §2

[3] = test system: NRAS mutant SKNAS neuroblastoma cells; test: Cell death by Annexin V/PI flow cytometry; type: cell-based; details: 1 μM 6-thio-dG, 5 μM Gam, single agents or in combination
Description: as §1, §2

Question: What does the source list for `Nc1nc2c(ncn2[C@H]2C[C@H](O)[C@@H](CO)O2)c(=S)[nH]1` [6-thio-dG, 6-thio-2′-deoxyguanosine]?
Answer: effect on alanine aminotransferase (ALT) [1]: no significant effects; effect on aspartate aminotransferase (AST) [1]: no significant effects; effect on creatinine levels [1]: no significant effects; effect on red blood cells [1]: no significant effects; effect on white blood cells [1]: no significant effects; GPX1 mRNA levels [2]: upregulation; SOD2 mRNA levels [2]: upregulation; UCP2 mRNA levels [2]: upregulation; cell death (KRAS mutant HCT116 cells): did not induce substantial death; cell death (KRAS mutant A549 cells): did not induce substantial death; cell death [3]: triggered significant death
